Experimental data: patent US8802700B2 (Vertex Pharmaceuticals Incorporated, priority 2010, dated 2014)

molecular target: T1, ΔF508-CFTR (Homo sapiens, UniProt P13569, DEL508-508); assay: Membrane potential optical assay (FRET voltage-sensor dyes, VIPR), identification of potentiator compounds; format: cell-based; settings: Table 3; assay not given
T1 construct: expressed in transfected cells
Source text: The optical membrane potential assay utilized voltage-sensitive FRET sensors described by Gonzalez and Tsien (See Gonzalez, J. E. and R. Y. Tsien (1995) “Voltage sensing by fluorescence resonance energy transfer in single cells” Biophys J 69(4): 1272-80, and Gonzalez, J. E. and R. Y. Tsien (1997) “Improved indicators of cell membrane potential that use fluorescence resonance energy transfer” Chem Biol 4(4): 269-77) in combination with instrumentation for measuring fluorescence changes such as the Voltage/Ion Probe Reader (VIPR) (See […]. Oades, et al. (1999) “Cell-based assays and instrumentation for screening ion-channel targets” Drug Discov Today 4(9): 431-439). These voltage sensitive assays are based on the change in fluorescence resonant energy transfer (FRET) between the membrane-soluble, voltage-sensitive dye, DiSBAC2(3), and a fluorescent phospholipid, CC2-DMPE, which is attached to the outer leaflet of the plasma membrane and acts as a FRET donor. Changes in membrane potential (Vm) cause the negatively charged DiSBAC2(3) to redistribute across the plasma membrane and the amount of energy transfer from CC2-DMPE changes accordingly. The changes in fluorescence emission were monitored using VIPRTM II, which is an integrated liquid handler and fluorescent detector designed to conduct cell-based screens in 96- or 384-well microtiter plates. To identify potentiators of ΔF508-CFTR, a double-addition HTS assay format was developed. During the first addition, a Cl^--free medium with or without test compound was added to each well. […] (in mM) NaCl 160, KCl 4.5, CaCl2 2, MgCl2 1, HEPES 10, pH 7.4 with NaOH. • Chloride-free bath solution: Chloride salts in Bath Solution #1 are substituted with gluconate salts. • CC2-DMPE: Prepared as a 10 mM stock solution in DMSO and stored at -20° C. • DiSBAC2(3): Prepared as a 10 mM stock in DMSO and stored at -20° C. NIH3T3 mouse fibroblasts stably expressing ΔF508-CFTR are used for optical measurements of membrane potential. […] For all optical assays, the cells were seeded at 30,000/well in 384-well matrigel-coated plates and cultured for 2 hrs at 37° C. before culturing at 27° C. for 24 hrs. for the potentiator assay.

T1 sequence (P13569 with tags, fused parts or gaps DEL508-508): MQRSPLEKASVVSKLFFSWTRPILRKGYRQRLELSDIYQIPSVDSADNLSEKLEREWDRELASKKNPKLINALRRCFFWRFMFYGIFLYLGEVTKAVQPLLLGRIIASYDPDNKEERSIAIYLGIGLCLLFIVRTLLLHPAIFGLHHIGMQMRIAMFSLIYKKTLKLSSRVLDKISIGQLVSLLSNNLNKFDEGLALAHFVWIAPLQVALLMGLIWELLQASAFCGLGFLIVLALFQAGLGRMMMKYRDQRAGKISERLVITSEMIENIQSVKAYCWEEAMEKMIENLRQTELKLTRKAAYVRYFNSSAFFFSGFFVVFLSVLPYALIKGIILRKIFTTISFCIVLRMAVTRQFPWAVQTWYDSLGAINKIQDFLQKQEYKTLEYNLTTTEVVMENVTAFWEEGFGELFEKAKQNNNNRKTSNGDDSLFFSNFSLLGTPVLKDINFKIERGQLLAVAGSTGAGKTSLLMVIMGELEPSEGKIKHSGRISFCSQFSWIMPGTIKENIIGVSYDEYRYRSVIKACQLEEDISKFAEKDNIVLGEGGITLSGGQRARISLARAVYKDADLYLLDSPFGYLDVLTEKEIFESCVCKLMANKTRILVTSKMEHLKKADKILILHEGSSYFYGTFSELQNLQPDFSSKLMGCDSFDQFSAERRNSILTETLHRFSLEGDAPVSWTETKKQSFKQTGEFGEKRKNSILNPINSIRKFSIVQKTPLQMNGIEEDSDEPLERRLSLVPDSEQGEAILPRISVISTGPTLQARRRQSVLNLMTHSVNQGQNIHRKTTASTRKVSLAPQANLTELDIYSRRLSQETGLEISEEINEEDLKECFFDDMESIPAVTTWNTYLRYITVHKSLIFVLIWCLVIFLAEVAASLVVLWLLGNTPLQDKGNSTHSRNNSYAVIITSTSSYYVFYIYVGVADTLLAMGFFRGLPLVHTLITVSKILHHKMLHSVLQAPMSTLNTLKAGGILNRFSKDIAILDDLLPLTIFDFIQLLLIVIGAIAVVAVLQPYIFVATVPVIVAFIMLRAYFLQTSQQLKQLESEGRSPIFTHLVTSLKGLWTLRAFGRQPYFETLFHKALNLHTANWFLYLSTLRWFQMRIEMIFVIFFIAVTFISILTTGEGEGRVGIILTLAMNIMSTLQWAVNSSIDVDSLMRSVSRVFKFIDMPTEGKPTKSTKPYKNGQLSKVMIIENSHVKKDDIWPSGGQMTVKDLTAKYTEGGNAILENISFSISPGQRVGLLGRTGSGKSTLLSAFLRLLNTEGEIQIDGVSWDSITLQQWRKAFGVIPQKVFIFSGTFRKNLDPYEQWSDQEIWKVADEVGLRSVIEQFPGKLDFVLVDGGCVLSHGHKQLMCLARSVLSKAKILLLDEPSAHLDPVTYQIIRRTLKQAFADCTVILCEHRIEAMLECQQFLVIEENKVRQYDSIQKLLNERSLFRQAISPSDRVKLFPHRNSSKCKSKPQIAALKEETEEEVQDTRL

EC50 [µM]	SMILES
< 10	CCCc1ccc(NC(=O)c2c[nH]c3ccccc3c2=O)cc1N(C)C [Compound 462, N-(3-dimethylamino-4-propyl-phenyl)-4-oxo-1H-quinoline-3-carboxamide]
< 10	O=C(Nc1ccc(N2CCCC2)cc1)c1c[nH]c2ccccc2c1=O [Compound 674, 4-oxo-N-(4-pyrrolidin-1-ylphenyl)-1H-quinoline-3-carboxamide]
< 10	Nc1cc(Cl)cc(NC(=O)c2c[nH]c3ccccc3c2=O)c1 [Compound 131, N-(3-amino-5-chloro-phenyl)-4-oxo-1H-quinoline-3-carboxamide]

same assay, conditions: Table 3; assay not given; read-out: % Activity (% Efficacy, relative efficacy)

Emax [%]	SMILES
25 to 100	O=C(Nc1ccc(C2CCCCC2)c(O)c1)c1c[nH]c2ccc(F)cc2c1=O [Compound 651, N-(4-cyclohexyl-3-hydroxy-phenyl)-6-fluoro-4-oxo-1H-quinoline-3-carboxamide]
25 to 100	CCOc1ccccc1-c1ccc(N)cc1NC(=O)c1c[nH]c2ccccc2c1=O [Compound 393, N-[5-amino-2-(2-ethoxyphenyl)-phenyl]-4-oxo-1H-quinoline-3-carboxamide]
> 100	O=C(Nc1cccc2c1CCCC2)c1c[nH]c2ccccc2c1=O [Compound 286, 1,4-dihydro-N-(1,2,3,4-tetrahydronaphthalen-5-yl)-4-oxoquinoline-3-carboxamide]
> 100	COc1cc2c(=O)c(C(=O)Nc3cc4[nH]ccc4cc3C(C)(C)C)c[nH]c2cc1F [Compound 611, 7-fluoro-6-methoxy-4-oxo-N-(5-tert-butyl-1H-indol-6-yl)-1H-quinoline-3-carboxamide]
25 to 100	Cc1cccc2[nH]cc(C(=O)Nc3ccc(N4CCC(F)(F)C4)cc3C(F)(F)F)c(=O)c12 [Compound 528, N-[4-(3,3-difluoropyrrolidin-1-yl)-2-(trifluoromethyl)phenyl]-5-methyl-4-oxo-1H-quinoline-3-carboxamide]
25 to 100	O=C(Nc1ccccc1N1CCCC1)c1c[nH]c2ccccc2c1=O [Compound 295, 4-oxo-N-(2-pyrrolidin-1-ylphenyl)-1H-quinoline-3-carboxamide]
25 to 100	Cc1cccc2[nH]cc(C(=O)Nc3ccc(N4CCC[C@H]4C)cc3C(F)(F)F)c(=O)c12 [Compound 697, (R)-5-methyl-N-(4-(2-methylpyrrolidin-1-yl)-2-(trifluoromethyl)phenyl)-4-oxo-1,4-dihydroquinoline-3-carboxamide]
25 to 100	Cc1cccc2[nH]cc(C(=O)Nc3ccc(N4CCC[C@@H]4C)nc3C(F)(F)F)c(=O)c12 [Compound 581, (S)-5-methyl-N-(6-(2-methylpyrrolidin-1-yl)-2-(trifluoromethyl)pyridin-3-yl)-4-oxo-1,4-dihydroquinoline-3-carboxamide]
25 to 100	CCc1ccc(NC)cc1NC(=O)c1c[nH]c2ccccc2c1=O [Compound 157, N-(2-ethyl-5-methylamino-phenyl)-4-oxo-1H-quinoline-3-carboxamide]
25 to 100	CCc1ccc(NC(=O)c2c[nH]c3ccccc3c2=O)cc1NC(=O)OC [Compound 129, [2-ethyl-5-[(4-oxo-1H-quinolin-3-yl)carbonylamino]phenyl]aminoformic acid methyl ester]
25 to 100	O=C(Nc1ccc(C(F)(F)F)cc1)c1c[nH]c2ccccc2c1=O [Compound 236, 4-oxo-N-[4-(trifluoromethyl)phenyl]-1H-quinoline-3-carboxamide]
25 to 100	COC(=O)[C@@H]1CCCCN1c1ccc(NC(=O)c2c[nH]c3ccccc3c2=O)c(C(F)(F)F)c1 [Compound 715, (S)-methyl 1-(4-(4-oxo-1,4-dihydroquinoline-3-carboxamido)-3-(trifluoromethyl)phenyl)piperidine-2-carboxylate]
25 to 100	CCCOC(=O)NCC(C)(C)c1ccc(NC(=O)c2c[nH]c3ccccc3c2=O)cc1 [Compound 416, [2-methyl-2-[4-[(4-oxo-1H-quinolin-3-yl)carbonylamino]phenyl]-propyl]aminoformic acid propyl ester]
25 to 100	CC(=O)c1ccccc1NC(=O)c1c[nH]c2ccccc2c1=O [Compound 365, N-(2-acetylphenyl)-4-oxo-1H-quinoline-3-carboxamide]
25 to 100	O=C(Nc1ccccc1-c1cccc(Cl)c1)c1c[nH]c2ccccc2c1=O [Compound 307, N-[2-(3-chlorophenyl)phenyl]-4-oxo-1H-quinoline-3-carboxamide]
25 to 100	O=C(Nc1ccc(OC(F)(F)F)c(N2CCCC2)c1)c1c[nH]c2ccccc2c1=O [Compound 579, 4-oxo-N-[3-pyrrolidin-1-yl-4-(trifluoromethoxy)phenyl]-1H-quinoline-3-carboxamide]
25 to 100	O=C(Nc1ccc(C(F)(F)F)c(O)c1)c1c[nH]c2ccccc2c1=O [Compound 506, N-[3-hydroxy-4-(trifluoromethyl)phenyl]-4-oxo-1H-quinoline-3-carboxamide]
< 25	O=C(Nc1cccn2ncnc12)c1c[nH]c2ccccc2c1=O [Compound 146, 4-oxo-N-(1,7,9-triazabicyclo[4.3.0]nona-2,4,6,8-tetraen-5-yl)-1H-quinoline-3-carboxamide]

Emax [%]	SMILES
25 to 100	CCCc1ccc(NC(=O)c2c[nH]c3ccccc3c2=O)cc1N(C)C [Compound 462, N-(3-dimethylamino-4-propyl-phenyl)-4-oxo-1H-quinoline-3-carboxamide]
< 25	O=C(Nc1ccc2[nH]c(=O)[nH]c2c1)c1c[nH]c2ccccc2c1=O [Compound 64, 4-oxo-N-(2-oxo-1,3-dihydrobenzoimidazol-5-yl)-1H-quinoline-3-carboxamide]
25 to 100	COC(=O)Nc1ccc(C(C)C)c(NC(=O)c2c[nH]c3ccccc3c2=O)c1 [Compound 239, [4-isopropyl-3-[(4-oxo-1H-quinolin-3-yl)carbonylamino]phenyl]aminoformic acid methyl ester]
25 to 100	O=C(Nc1ccc2cc(C(F)(F)F)[nH]c2c1)c1c[nH]c2ccc(F)cc2c1=O [Compound 495, 6-fluoro-4-oxo-N-[2-(trifluoromethyl)-1H-indol-6-yl]-1H-quinoline-3-carboxamide]
< 25	O=C(Nc1ccc(C(F)(F)F)cc1Cl)c1c[nH]c2ccc(F)cc2c1=O [Compound 636, N-[2-chloro-4-(trifluoromethyl)phenyl]-6-fluoro-4-oxo-1H-quinoline-3-carboxamide]
25 to 100	COc1ncc(-c2ccccc2NC(=O)c2c[nH]c3ccccc3c2=O)c(OC)n1 [Compound 97, N-[2-(2,4-dimethoxypyrimidin-5-yl)phenyl]-4-oxo-1H-quinoline-3-carboxamide]
25 to 100	O=C(Nc1ccc(N2CCCC2)cc1)c1c[nH]c2ccccc2c1=O [Compound 674, 4-oxo-N-(4-pyrrolidin-1-ylphenyl)-1H-quinoline-3-carboxamide]
25 to 100	CC(C)(C)c1cccc(NC(=O)c2c[nH]c3ccc(F)cc3c2=O)c1 [Compound 664, 6-fluoro-4-oxo-N-(3-tert-butylphenyl)-1H-quinoline-3-carboxamide]
> 100	Cc1cc(N2CCCC2)ccc1NC(=O)c1c[nH]c2ccccc2c1=O [Compound 615, N-(2-methyl-4-pyrrolidin-1-yl-phenyl)-4-oxo-1H-quinoline-3-carboxamide]
25 to 100	O=C(Nc1ccccc1)c1c[nH]c2cc(Cl)ccc2c1=O [Compound 411, 7-chloro-4-oxo-N-phenyl-1H-quinoline-3-carboxamide]
25 to 100	COc1cc(NC(=O)c2c[nH]c3ccccc3c2=O)cc2ccccc12 [Compound 717, N-(4-methoxy-2-naphthyl)-4-oxo-1H-quinoline-3-carboxamide]
> 100	C[C@H]1CCCCN1c1ccc(NC(=O)c2c[nH]c3ccccc3c2=O)c(C(F)(F)F)c1 [Compound 713, (S)-N-(4-(2-methylpiperidin-1-yl)-2-(trifluoromethyl)phenyl)-4-oxo-1,4-dihydroquinoline-3-carboxamide]
25 to 100	CC(C)c1cc(C(F)(F)F)c(NC(=O)c2c[nH]c3ccccc3c2=O)cc1OCc1ccccc1 [Compound 570, N-[5-benzyloxy-4-isopropyl-2-(trifluoromethyl)phenyl]-4-oxo-1H-quinoline-3-carboxamide]
25 to 100	Nc1cc(Cl)cc(NC(=O)c2c[nH]c3ccccc3c2=O)c1 [Compound 131, N-(3-amino-5-chloro-phenyl)-4-oxo-1H-quinoline-3-carboxamide]
> 100	O=C(Nc1ccc(N2CCOCC2)cc1C(F)(F)F)c1c[nH]c2ccccc2c1=O [Compound 598, N-[4-morpholino-2-(trifluoromethyl)phenyl]-4-oxo-1H-quinoline-3-carboxamide]
25 to 100	CCc1ccc(NC(=O)OC)cc1NC(=O)c1c[nH]c2ccccc2c1=O [Compound 249, [4-ethyl-3-[(4-oxo-1H-quinolin-3-yl)carbonylamino]phenyl]aminoformic acid methyl ester]
25 to 100	CC1(c2ccc(NC(=O)c3c[nH]c4cccc(O)c4c3=O)cc2)COC1 [Compound 529, 5-hydroxy-N-[4-(3-methyloxetan-3-yl)phenyl]-4-oxo-1H-quinoline-3-carboxamide]
